{"source": "patent US5786377A", "about": "“Pyrrolo[3,2-E]indol derivatives, process for the preparation thereof and applications” (Universidad de Santiago de Compostela, priority 1993, dated 1998)", "key": {"cancer": {"test_system": "cancer", "test": "anticarcinogenic activity in vivo and toxicity, general statement on the biological activity studies", "conditions": "in words; for toxicity: in vivo", "source_text": "This makes them especially ideal for used as agents for the therapeutic treatment of cancer in its diverse manifestations and, especially, in cases of leukemia."}, "P388 leukemic tumor": {"test_system": "P388 leukemic tumor", "test": "P388 antitumoral model in vivo, survival of leukemic mice (%C/T)", "parameters": "species or system mouse", "description": "Description of the P388 Antitumoral Model\nNormally, 1×10^6 cells in ascitic fluid was implanted. i.p. in CD2 F1 mice. Treatment with the agent tested i.p. began one day after the tumor had been implanted and it is continued daily up to a total of 5 injections for synthetic products and of 9 injections for raw natural products. The results are expressed as percentage of the control survival time.\nCDFl mice weighing 18-22 gr (+/-3 gr) were implanted on day 0 of the test period 0.1 ml. of a dilution of 1.0×10^7 tumor cells coming from DBA/2N mice used for the propagation of the tumor.\nOn day 1 of the test period the animals were grouped at randam in groups of six animals. Each group is weighed and the average weight is written down. Each compound to be tested in duluted in 4 lvels of dosis for each multidose test as of the determiantion of the highest non-toxic dose (v.g. 400 mg/kg; 100 mg/kg; 10 mg/kg.)\nAdministration of the test compounds is started on day 1 using volumns of 1/2 drug injected i.p. Injections are given on days 1 to 9 of the test period, unless it is indicated to the contrary. The animals are weighed on day 5, which is the one which in this system is considered the day of toxicity. Toxicity in this test system is defined as: […]\nA. 34% deaths up to day 5--acute toxicity\nB. C/T <85% --chronic toxicity\nC. A negative average of the weight change of the animals >4 g up to day 5--chronic toxicity\nThe data obtained upon testing the compounds in vivo in comparison with the P388 leukemic tumor model in mice are shown in the following table:\nWhere %C/T means average survival of the tested group/average survival of […]"}, "[1]": {"conditions": "cited from earlier work"}, "[2]": {"conditions": "compared with CC-1065; cited from earlier work"}, "P388": {"test_system": "P388", "conditions": "cited from earlier work"}, "[3]": {"conditions": "in words; cited from earlier work"}, "P-388": {"test_system": "P-388", "test": "in vitro test, P-388", "format": "cell-based", "conditions": "Mus musculus, P388", "source_text": "(§1) On the other hand, the results of the tests in vitro carried out on compounds (IIIa) and (IIIb) were the following: […]"}, "MEL-28": {"test_system": "MEL-28", "test": "in vitro test, MEL-28", "format": "cell-based", "conditions": "Homo sapiens, SK-MEL-28", "source_text": "as §1"}, "HT-29": {"test_system": "HT-29", "test": "in vitro test, HT-29", "format": "cell-based", "conditions": "Homo sapiens", "source_text": "as §1"}, "A-549": {"test_system": "A-549", "test": "in vitro test, A-549", "format": "cell-based", "conditions": "Homo sapiens, A549", "source_text": "as §1"}}, "data": [{"smiles": "COC(=O)c1cn(C)c2c1C13CC1CN(C(=O)c1cc4cc(NC(=O)c5cc6ccccc6o5)ccc4[nH]1)C3=CC2=O", "note": "(stereo not drawn) [(IV), methyl 2-[5-[(benzofuran-2-ylcarbonyl)amino]-1H-indol-2-carbonyl]-5-methyl-4-oxo,1,2,4,5,8,8,a-hexahydrocyclopropa[c]pyrrolo[3,2-e]indol-7-carboxylate]", "values": [{"measurement": "toxicity", "setting": "cancer", "value": "very low toxicity"}, {"measurement": "anticarcinogenic activity in vivo", "setting": "cancer", "value": "high anticarcinogenic activity in vivo"}, {"measurement": "%C/T (average survival of the tested group/average survival of the controls and untreated ones)", "setting": "P388 leukemic tumor; 0.300 mg/kg i.p.", "value": 251.1, "unit": "%"}, {"measurement": "%C/T activity class (significance mark)", "setting": "P388 leukemic tumor; 0.300 mg/kg i.p.", "value": "** (Significant activity (strong): C/T > = 175%)"}]}, {"smiles": "COC(=O)c1cn(C)c2c1C13CC1CN(C(=O)c1cc4cc(OC)c(OC)c(OC)c4[nH]1)C3=CC2=O", "note": "(stereo not drawn) [(VI), methyl 2-(5,6,7-trimethoxy-1H-indolz2-carbonyl)-5-methyl-4-oxo-1,2,4,5,8a-hexahydrocyclopropa[c]pyrrolo[3,2-e]indol-7-carboxylate]", "values": [{"measurement": "toxicity", "setting": "cancer", "value": "very low toxicity"}, {"measurement": "anticarcinogenic activity in vivo", "setting": "cancer", "value": "high anticarcinogenic activity in vivo"}, {"measurement": "%C/T (average survival of the tested group/average survival of the controls and untreated ones)", "setting": "P388 leukemic tumor; 0.500 mg/kg i.p.", "value": 210.9, "unit": "%"}, {"measurement": "%C/T activity class (significance mark)", "setting": "P388 leukemic tumor; 0.500 mg/kg i.p.", "value": "** (Significant activity (strong): C/T > = 175%)"}]}, {"smiles": "Cc1c[nH]c2c1C13CC1CN(C(=O)c1cc4cc(NC(=O)c5cc6ccccc6o5)ccc4[nH]1)C3=CC2=O", "note": "(stereo not drawn) [Adocelesine]", "values": [{"measurement": "delayed lethality", "setting": "[1]; mouse, in vivo", "value": "without provoking delayed lethality"}, {"measurement": "tumoral effectiveness versus the natural product", "setting": "[2]", "value": "greatly exceeds the natural product in tumoral effectiveness"}]}, {"smiles": "O=C(Nc1ccc2[nH]c(C(=O)N3CC4CC45C3=CC(=O)c3ccccc35)cc2c1)c1cc2ccccc2[nH]1", "note": "(stereo not drawn) [CBI-Ind2]", "values": [{"measurement": "results in the P388 model in vivo", "setting": "P388", "value": "very good results in the P388 model in vivo"}]}, {"smiles": "COc1c(O)c2c(c3cc(C(=O)N4CCc5c4c(O)c(OC)c4[nH]c(C(=O)N6CC7CC78C6=CC(=O)c6[nH]cc(C)c68)cc54)[nH]c13)CCN2C(N)=O", "note": "(stereo not drawn) [CC-1065]", "values": [{"measurement": "toxicity (delayed deaths)", "setting": "[1]; mice, therapeutic doses", "value": "high toxicity, producing delayed deaths in mice at therapeutic doses"}, {"measurement": "cytotoxic strength", "setting": "[3]", "value": "extremely strong cytoxine"}]}, {"smiles": "COC(=O)c1cn(C)c2c(O)cc3c(c12)C(CCl)CN3C(=O)c1cc2cc(NC(=O)c3cc4ccccc4o3)ccc2[nH]1", "note": "(stereo not drawn) [Compound (III), methyl 6-{5-[(benzofuran-2-ylcarbonyl)-amino]1H-indol-2-carbonyl}-8-chloromethyl-4-hydroxy-3-methyl-3,6,7,8,tetrahydropyrrolo[3,2-e]indol-1-carboxylate]", "values": [{"measurement": "toxicity", "setting": "cancer", "value": "very low toxicity"}, {"measurement": "anticarcinogenic activity in vivo", "setting": "cancer", "value": "high anticarcinogenic activity in vivo"}, {"measurement": "%C/T (average survival of the tested group/average survival of the controls and untreated ones)", "setting": "P388 leukemic tumor; 0.500 mg/kg i.p.", "value": "> 391.3", "unit": "%"}]}, {"smiles": "COC(=O)c1cn(C)c2c(O)cc3c(c12)C(CCl)CN3C(=O)c1cc2cc(OC)c(OC)c(OC)c2[nH]1", "note": "(stereo not drawn) [Compound (V), methyl 6-(5,6,7-trimethoxy-1H-indol-2-carbonyl)-8-chloromethyl-4-hydroxy-3-methyl-3,6,7,8-tetra-hydropyrrololo[3,2-e]indol-1-carboxylate]", "values": [{"measurement": "toxicity", "setting": "cancer", "value": "very low toxicity"}, {"measurement": "anticarcinogenic activity in vivo", "setting": "cancer", "value": "high anticarcinogenic activity in vivo"}, {"measurement": "%C/T (average survival of the tested group/average survival of the controls and untreated ones)", "setting": "P388 leukemic tumor; 0.050 mg/kg i.p.", "value": 133.9, "unit": "%"}, {"measurement": "%C/T activity class (significance mark)", "setting": "P388 leukemic tumor; 0.050 mg/kg i.p.", "value": "** (Significant activity (strong): C/T > = 175%)"}]}, {"smiles": "COC(=O)c1cn(C)c2c(OC(=O)c3ccc([N+](=O)[O-])cc3)cc3c(c12)C(CCl)CN3C(=O)c1cc2cc(NC(=O)c3cc4ccccc4o3)ccc2[nH]1", "note": "(stereo not drawn) [IIIb]", "values": [{"measurement": "IC50", "setting": "P-388", "value": 0.02, "unit": "ng/mL"}, {"measurement": "IC50", "setting": "MEL-28", "value": 0.5, "unit": "ng/mL"}, {"measurement": "IC50", "setting": "HT-29", "value": 0.5, "unit": "ng/mL"}, {"measurement": "IC50", "setting": "A-549", "value": 0.1, "unit": "ng/mL"}]}]}
